Tests used:
[1] = molecular target: T1, L channels of isolated skeletal muscle (Oryctolagus cuniculus, UniProt P07293); details: read-out: concentration of calcium required for 50% inhibition (Ki) of verapamil binding; isolated skeletal muscle (Galizzi et al. 1984); cited from earlier work
T1 construct: host or cells: isolated skeletal muscle

Schistosoma mansoni = Schistosoma mansoni in vitro egg production, eight day culture of worm pairs; format: cell-based
Echinostoma caproni = details: elevated concentrations (microgram range: verapamil 50-200, nifedipine 25-200, diltiazem 5-50 μg/ml), 24 hours, ANOVA

T1 sequence (P07293 whole entry): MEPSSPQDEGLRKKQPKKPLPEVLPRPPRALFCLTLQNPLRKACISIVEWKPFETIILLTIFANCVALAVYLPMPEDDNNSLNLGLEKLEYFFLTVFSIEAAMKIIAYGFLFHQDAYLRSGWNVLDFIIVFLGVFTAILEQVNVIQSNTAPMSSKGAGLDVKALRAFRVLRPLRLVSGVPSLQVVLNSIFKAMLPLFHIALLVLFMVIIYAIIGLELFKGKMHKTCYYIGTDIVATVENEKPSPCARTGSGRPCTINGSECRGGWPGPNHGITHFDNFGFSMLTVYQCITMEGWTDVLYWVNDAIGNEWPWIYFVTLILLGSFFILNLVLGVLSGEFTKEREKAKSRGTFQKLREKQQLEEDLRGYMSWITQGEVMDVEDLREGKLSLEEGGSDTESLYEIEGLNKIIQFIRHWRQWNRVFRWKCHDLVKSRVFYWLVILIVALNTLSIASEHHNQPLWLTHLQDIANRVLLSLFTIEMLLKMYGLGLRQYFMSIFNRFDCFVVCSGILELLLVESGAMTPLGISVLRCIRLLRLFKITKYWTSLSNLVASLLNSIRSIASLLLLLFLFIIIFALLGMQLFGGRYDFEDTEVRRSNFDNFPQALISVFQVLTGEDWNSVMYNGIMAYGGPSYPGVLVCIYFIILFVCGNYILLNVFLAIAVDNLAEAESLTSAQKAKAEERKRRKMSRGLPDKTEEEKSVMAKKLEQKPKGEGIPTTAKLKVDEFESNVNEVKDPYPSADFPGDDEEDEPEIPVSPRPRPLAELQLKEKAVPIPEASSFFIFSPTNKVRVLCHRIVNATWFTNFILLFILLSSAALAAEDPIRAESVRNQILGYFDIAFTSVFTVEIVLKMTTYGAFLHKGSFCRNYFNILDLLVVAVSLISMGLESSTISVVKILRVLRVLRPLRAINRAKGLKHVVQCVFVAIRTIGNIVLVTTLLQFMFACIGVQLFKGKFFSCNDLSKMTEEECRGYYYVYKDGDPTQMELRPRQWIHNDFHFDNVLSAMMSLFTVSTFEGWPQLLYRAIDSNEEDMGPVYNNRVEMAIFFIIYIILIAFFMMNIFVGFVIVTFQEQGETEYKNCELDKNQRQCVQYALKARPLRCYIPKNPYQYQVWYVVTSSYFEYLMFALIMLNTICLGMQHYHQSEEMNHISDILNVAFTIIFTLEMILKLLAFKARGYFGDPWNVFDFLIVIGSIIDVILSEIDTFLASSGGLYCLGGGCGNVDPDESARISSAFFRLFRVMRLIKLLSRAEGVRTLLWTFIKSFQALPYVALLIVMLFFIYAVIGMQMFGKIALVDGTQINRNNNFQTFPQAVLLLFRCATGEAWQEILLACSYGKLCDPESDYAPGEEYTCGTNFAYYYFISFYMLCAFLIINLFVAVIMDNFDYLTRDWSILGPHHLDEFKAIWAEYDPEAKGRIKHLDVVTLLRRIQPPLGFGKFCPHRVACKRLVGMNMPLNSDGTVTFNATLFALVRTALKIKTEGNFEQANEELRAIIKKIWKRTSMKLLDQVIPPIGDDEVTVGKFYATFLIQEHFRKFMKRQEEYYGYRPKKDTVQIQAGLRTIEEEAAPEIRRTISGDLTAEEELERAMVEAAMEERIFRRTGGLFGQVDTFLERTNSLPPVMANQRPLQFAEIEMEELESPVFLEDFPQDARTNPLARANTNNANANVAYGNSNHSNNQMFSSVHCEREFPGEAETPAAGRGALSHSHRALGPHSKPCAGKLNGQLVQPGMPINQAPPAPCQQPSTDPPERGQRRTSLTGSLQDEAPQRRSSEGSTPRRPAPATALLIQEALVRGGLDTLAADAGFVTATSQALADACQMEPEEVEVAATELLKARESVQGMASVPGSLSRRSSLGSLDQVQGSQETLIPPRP
T1 sequence (P13806 27-960 partner limits assumed): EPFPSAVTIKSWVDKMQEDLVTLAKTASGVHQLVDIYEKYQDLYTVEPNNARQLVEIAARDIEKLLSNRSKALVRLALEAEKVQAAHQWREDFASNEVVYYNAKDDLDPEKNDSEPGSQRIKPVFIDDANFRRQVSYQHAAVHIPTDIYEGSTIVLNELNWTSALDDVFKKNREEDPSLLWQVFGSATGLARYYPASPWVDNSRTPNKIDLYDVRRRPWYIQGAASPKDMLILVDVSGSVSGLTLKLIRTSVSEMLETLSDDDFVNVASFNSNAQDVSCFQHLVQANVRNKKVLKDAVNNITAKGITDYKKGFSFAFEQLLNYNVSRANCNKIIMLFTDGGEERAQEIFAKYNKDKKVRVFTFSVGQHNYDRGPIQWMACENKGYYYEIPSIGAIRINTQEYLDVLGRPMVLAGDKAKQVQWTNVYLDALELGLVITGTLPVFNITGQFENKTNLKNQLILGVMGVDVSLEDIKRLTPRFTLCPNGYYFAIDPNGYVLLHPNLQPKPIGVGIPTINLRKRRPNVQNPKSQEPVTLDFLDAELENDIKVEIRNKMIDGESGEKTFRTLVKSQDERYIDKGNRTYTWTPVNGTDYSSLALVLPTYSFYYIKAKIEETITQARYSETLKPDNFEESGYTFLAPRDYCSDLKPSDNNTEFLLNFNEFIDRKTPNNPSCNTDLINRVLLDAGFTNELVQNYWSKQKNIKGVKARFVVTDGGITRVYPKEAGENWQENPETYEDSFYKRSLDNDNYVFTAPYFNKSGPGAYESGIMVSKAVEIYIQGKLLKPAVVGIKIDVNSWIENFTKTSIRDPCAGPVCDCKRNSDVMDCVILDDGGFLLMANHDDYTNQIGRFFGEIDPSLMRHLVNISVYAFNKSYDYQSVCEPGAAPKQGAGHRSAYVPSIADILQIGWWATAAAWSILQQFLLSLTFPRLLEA
T1 sequence (P13806 961-1106 partner limits assumed): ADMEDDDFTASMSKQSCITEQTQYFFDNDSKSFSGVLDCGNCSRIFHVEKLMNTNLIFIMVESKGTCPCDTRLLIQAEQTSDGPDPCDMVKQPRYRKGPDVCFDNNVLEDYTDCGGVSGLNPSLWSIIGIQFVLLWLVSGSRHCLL
T1 sequence (P19517 whole entry partner): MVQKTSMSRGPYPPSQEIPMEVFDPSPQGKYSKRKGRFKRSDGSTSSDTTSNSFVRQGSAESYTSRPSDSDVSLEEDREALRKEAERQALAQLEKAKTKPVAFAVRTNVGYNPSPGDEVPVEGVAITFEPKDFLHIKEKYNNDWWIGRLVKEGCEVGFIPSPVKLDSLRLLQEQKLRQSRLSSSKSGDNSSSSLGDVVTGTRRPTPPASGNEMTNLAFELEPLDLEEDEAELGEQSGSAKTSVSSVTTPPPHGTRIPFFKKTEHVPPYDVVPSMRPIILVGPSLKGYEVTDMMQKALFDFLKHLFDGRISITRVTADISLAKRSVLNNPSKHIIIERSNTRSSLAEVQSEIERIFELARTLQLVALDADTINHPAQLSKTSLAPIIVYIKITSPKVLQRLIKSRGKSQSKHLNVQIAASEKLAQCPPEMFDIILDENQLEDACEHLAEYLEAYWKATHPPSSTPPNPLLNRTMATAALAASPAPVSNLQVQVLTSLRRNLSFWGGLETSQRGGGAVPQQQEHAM
T1 sequence (P19518 whole entry partner): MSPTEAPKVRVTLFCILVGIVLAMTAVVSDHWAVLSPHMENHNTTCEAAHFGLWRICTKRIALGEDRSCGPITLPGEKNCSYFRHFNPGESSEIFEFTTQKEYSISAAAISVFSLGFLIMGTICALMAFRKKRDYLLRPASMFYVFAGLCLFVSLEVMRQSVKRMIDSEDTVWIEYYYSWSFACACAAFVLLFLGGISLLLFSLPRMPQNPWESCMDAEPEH

SMILES	Ki [1] [µM]	effect on proportion of worms which did not produce eggs until after 48 hours of culture (Schistosoma mansoni; 0.25 μg/ml)	effect on proportion of worms producing eggs in the three production categories (Schistosoma mansoni; 0.25 μg/ml and 2.5 μg/ml, Chi Square 4.15, p=0.386)	effect on proportion of worms which did not produce eggs until after 48 hours of culture (Schistosoma mansoni; 2.5 μg/ml, Fisher's exact test, p=0.013)	decrease in the total number of eggs produced by all worms of the treatment group (Schistosoma mansoni; 2.5 μg/ml, eight days) [%]	worms in the highest egg-production category (Schistosoma mansoni; 2.5 μg/ml, control worms 34%) [%]	proportion of non-producers (Schistosoma mansoni; 25 μg/ml as printed, control worms 17%) [%]	effect on proportion of non-producers, pairwise comparison with control (Schistosoma mansoni; 50 μg, Fisher Exact test, 2-tailed, p<0.0001)	decrease in the total number of eggs produced by all worms of the treatment group (Schistosoma mansoni; 50 μg/ml, eight days) [%]	egg production (Schistosoma mansoni; 50 μg/ml, eight days)	number of worms producing eggs 48+ Hours (Schistosoma mansoni; verapamil 0.25 μg/ml)	number of worms producing eggs within 48 Hours (Schistosoma mansoni; verapamil 0.25 μg/ml)	number of worms producing eggs 48+ Hours (Schistosoma mansoni; verapamil 2.5 μg/ml)	number of worms producing eggs within 48 Hours (Schistosoma mansoni; verapamil 2.5 μg/ml)	number of worms producing eggs 48+ Hours (Schistosoma mansoni; verapamil 50 μg/ml)	number of worms producing eggs within 48 Hours (Schistosoma mansoni; verapamil 50 μg/ml)	effect on egg production compared to controls (Echinostoma caproni)
[Ca] [calcium]	~300																
COc1ccc(CCN(C)CCCC(C#N)(c2ccc(OC)c(OC)c2)C(C)C)cc1OC (stereo not drawn) [verapamil, α-[3-[[2-(3,4-dimethoxyphenyl)ethyl]methyl-amine]propyl]-3,4-dimethoxy-α-(1-methylethyl)-benzeneacetonitrile]		not	did not significantly affect	significantly increased	38	15	30	significantly affected egg production	100	no eggs were produced at any time	8	24	14	14	0	0	significantly inhibited

From patent US6514963B2, “Methods for the inhibition of egg production in trematodes” (The Regents of the University of California, priority 2000, dated 2003)
